Experimental data: patent US20020025940A1, “Methods and compositions for sensitive and rapid, functional identification of genomic polynucleotides and use for cellular assays in drug discovery” (Aurora Biosciences Corporation, priority 1997, published 2002)

Tested on: repressed BLEC Jurkat clones
Assay: Characterization of repressed BLEC Jurkat clones, relative repression of beta-lactamase
Format: cell-based, human
Conditions: PHA 10 microgram/ml, CsA 100 nM, PMA 8 nM, Thaps 1 microM
Text: These clones represent cells in which the BLEC trapping construct had integrated into a gene down regulated by PHA (T-cell) activation. Thus, these cells report the transcriptional repression of a gene upon cellular activation. Individual clones were identified and isolated by FACS using CCF2/AM to detect beta-lactamase activity using the following repressed sorting paradigm.
A first sort was used to isolate a population of cells that constitutively express beta-lactamase by identifying and isolating a population of blue cells from an unstimulated population of BLEC transfected Jurkat cells contacted with CCF2/AM. The sorted population of cells represented 2.89% of the unsorted population. These cells were cultured, divided into two pools, and stimulated with one of two different stimuli, either 10 micrograms/ml PHA for 18 hours, or 8 nM PMA and 1 microM Thapsigargin for 18 hours. These stimulated cells were contacted with CCF2 (loading in the presence of 400 PET (4% weight/volume) and Pluoronic 128 (100 micrograms/ml)) and the green cells in the population were sorted using FACS. The sorted population represented 8.41% of the cell population prior to the second sort. The third round of FACS was for single blue unstimulated cells. The population of cells obtained represented 18.2% of the cell population prior to the third sort.
This sorting procedure represents a 2,260-fold enrichment for PHA repressible clones. These clones have the beta-lactamase gene integrated into a gene that is down regulated by PHA stimulation of the cells. Six of 80 individual clones tested were repressed by PHA or PMA+Thapsigargin. All of these clones were confirmed to be independent integration events by genomic Southern analysis using a DNA probe encoding beta-lactamase.
Table 7 and Table 8 provide data similar to that provided in Table 5 for all of the clones obtained by the methods of Examples 5 to 7.

phytohemaglutinin [PHA]
Relative repression of beta-lactamase in the indicated clone by the following activator (clone 183/97pptr2): 10 | Relative repression of beta-lactamase in the indicated clone by the following activator (clone J83/97pptr1): 90 | Relative repression of beta-lactamase in the indicated clone by the following activator (clone J83/97pptr3): 10 | Relative repression of beta-lactamase in the indicated clone by the following activator (clone J83/97pptr4): 60 | Relative repression of beta-lactamase in the indicated clone by the following activator (clone J83/97pptr5): 50 | Relative repression of beta-lactamase in the indicated clone by the following activator (clone J83/97pptr6): 70
